From paper PMC5064022, “KCNE1 induces fenestration in the Kv7.1/KCNE1 channel complex that allows for highly specific pharmacological targeting” (Nature Communications, 2016)

Columns and labels:
homomeric Kv7.1 = system: T1, homomeric Kv7.1; assay: TEVC, homomeric Kv7.1 channels in oocytes; assay type: cell-based, human
T1 construct: expressed in transfected cells; host or cells: Xenopus oocytes, cRNA injected
Experimental: Figure 1 AC-1 inhibits Kv7.1 channels only in the presence of KCNE1. (a) Structure of adamantane compound AC-1. (b) Concentration-response relationship for inhibition of Kv7.1/KCNE channel currents by AC-1. Kv7.1/KCNE1 channel currents were activated by repetitive 7 s pulses to +40 mV applied from a holding potential of −80 mV. Inhibition was determined as percent change in current amplitude at the end of the depolarizing test pulse to +40 mV. Data were fitted (smooth curve) to the Hill equation (n=5–70,±s.e.m.). (c) The inhibitory effect of different AC-1 concentrations on Kv7.1/KCNE1 channels was determined by repetitive 7 s pulses to +40 mV applied from a holding potential of −80 mV. […] Inhibition of current was determined as described above and plotted against the amount (in ng) of cRNA injected into individual oocytes. […]
(§1) Template cDNAs (wildtype or mutant human Kv7.1 in pSGEM, wildtype human KCNE1 in pSP64) were linearized with a suitable restriction enzyme (Nhe I/pSGEM, Eco RI/pSP64). cRNA was synthesized from 1 μg linearized cDNA by in vitro transcription (mMessage mMachine T7 or SP6 kit, Ambion, Life Technologies Darmstadt, Germany). cRNA concentrations were determined by photometry (Nanodrop, Peqlab, Erlangen, Germany) and cRNA quality was checked by agarose gel electrophoresis. […]

I337V/KCNE1 = I337V/KCNE1 (Homo sapiens, UniProt P15382+P51787, I337V); assay: TEVC, mutant channel I337V/KCNE1 in oocytes; assay type: cell-based; settings: Kv7.1 I337V mutant with KCNE1
Source text: Ala scanning was previously used to identify specific residues that form the putative binding sites for chromanol and benzodiazepine derivatives that are considered to be classical pore blockers of Kv7.1 channels. Here we applied Ala scanning to multiple segments of the Kv7.1 α-subunit to identify potential AC-1 interaction sites in the extended pore region of Kv7.1/KCNE1 channels (Fig. 3a). In cases where mutation to Ala precluded channel function, alternative residues were introduced. […] Instead, most of these crucial residues cluster around a ‘window' formed uniquely in the preopen–closed state model of the Kv7.1/KCNE1 channel[33] (Fig. 3c, magenta residues). […]
as §1
TEVC measurements were performed using a TurboTec-10CD amplifier (npi Electronic, Tamm, Germany) and an ITC-16 AD/DA-interface (Instrutech Corporation, Port Washington, New York, USA). […] Tail currents were recorded at −120 mV. […]

Kv7.2 = system: T2, Kv7.2; assay: TEVC, Kv7.2 channels; assay type: cell-based; settings: 1 μM
T2 construct: expressed in transfected cells

IC50 (I337V/KCNE1): 6 ± 1.6 µM
SMILES: CC(C)(Oc1ccc(Cl)cc1)C(=O)NC1C2CC3CC1CC(NS(C)(=O)=O)(C3)C2 (stereo not shown) [AC-1, 2-(4-chlorophenoxy)-2-methyl-N-[5-[(methylsulfonyl)amino]tricyclo[3.3.1.13,7]dec-2-yl]-propanamide]
effect on homomeric Kv7.1 (homomeric Kv7.1; 1 μM): does not affect
effect of different concentrations on Kv7.1 homotetramers (homomeric Kv7.1; different concentrations, up to 10 μM, +40 mV): Lack of effect
effect on Kv7.2 (Kv7.2): does not affect
